Laboratory results as given in US20090069623A1, “METHODS AND COMPOSITIONS FOR TREATMENT OR PREVENTION OF RADIATION-INDUCED FIBROSIS” (Virginia Commonwealth University Intellectual Property …, priority 2007, published 2009).

What was measured:
[1] = tested on: CTGF, fibronectin; test: Western blot of HFL-1 cells treated with TGF-β1 and simvastatin; format: cell-based, human; details: TGF-β1 plus simvastatin, three days, FIG. 7B
Experimental: Cell Culture and Treatment. Normal human fetal lung fibroblasts (HFL-1) were purchased from the American Type Culture Collection (ATCC Number: CCL-153) and cultured in Ham's F12K medium (American Type Culture Collection) supplemented with 2 mM L-glutamine adjusted to contain 1.5 g/L sodium bicarbonate and 10% fetal bovine serum. Cells were maintained in humidified 5% CO2 at 37° C. Human dermal fibroblasts (HDF), derived from the dermis of normal human adult skin, were purchased from Invitrogen, Inc. and cultured in Medium-106 (Invitrogen, Inc., Catalogue No. M-106-500) containing LSGS Kit (Invitrogen, Inc., Catalogue No. S-003-K) prior to use. […]
Harvesting Culture Media and Cell Lystates. For analysis of extracellular CTGF, fibronectin, and α-tubulin, cell culture media was collected, centrifuged to remove cellular debris, aliquoted, and frozen at −70° C. until ready for use. […]
Western blot analysis of HFL-1 whole cell proteins. […] After washing the blot, the antibodies were detected by the enhanced chemiluminescence method (PerkinElmer Life Sciences Inc.).
The separated proteins were then transferred to nitrocellulose, and Western immunoblotting was performed with antibodies specific for CTGF, fibronectin, and α-tubulin. […] As a control for protein loading, α-tubulin expression in HFL-1 cells was also determined.

[2] = tested on: CTGF, fibronectin (FN), collagen type IV (Col IV) mRNA; test: RT-PCR of TGF-β1-induced mRNA expression in HFL-1 cells treated with simvastatin; format: cell-based, human; details: 10 ng/ml TGF-β1 for 20 hours, FIG. 7A
Experimental: Cell Culture and Treatment. Normal human fetal lung fibroblasts (HFL-1) were purchased from the American Type Culture Collection (ATCC Number: CCL-153) and cultured in Ham's F12K medium (American Type Culture Collection) supplemented with 2 mM L-glutamine adjusted to contain 1.5 g/L sodium bicarbonate and 10% fetal bovine serum. Cells were maintained in humidified 5% CO2 at 37° C. Human dermal fibroblasts (HDF), derived from the dermis of normal human adult skin, were purchased from Invitrogen, Inc. and cultured in Medium-106 (Invitrogen, Inc., Catalogue No. M-106-500) containing LSGS Kit (Invitrogen, Inc., Catalogue No. […]) prior to use. After reaching 75-80% confluence, the medium was changed to serum free medium (SFM) for irradiation with different dose 1Gy, 2.5Gy, 5Gy, 7.5Gy and 10 Gy by using ^137Se. Alternatively, cells were treated with 5 ng/ml TGF-β1 (Sigma-Aldrich, Inc., Catalogue No. T7039) to stimulate CTGF production. The cells were then kept for 3 days in humidified 5% CO2 at 37° C. and subjected to Western immunoblot.^1 ^1What are the culture conditions (e.g., media) for M12 cells used in FIG. 3? RT-PCR analysis of CTGF, COL-IV, FN and hβ2M. […] The ability of statins to inhibit TGF-β1-mediated induction of CTGF, fibronectin, and collagen type IV was assessed in HFL-1 cells. […]

With CCC(C)(C)C(=O)O[C@H]1C[C@@H](C)C=C2C=C[C@H](C)[C@H](CC[C@@H]3C[C@@H](O)CC(=O)O3)[C@H]21 [simvastatin, 2,2-dimethyl-butanoic acid(1S,3R,7S,8S,8aR)-1,2,3,7,8,8a-hexahydro-3,7-dimethyl-8-[2-[(2R,4R)-tetrahydro-4-hydroxy-6-oxo-2H-pyran-2-yl]ethyl]-1-naphthalenylester] the fibronectin protein expression [1] was “decrease in protein expression or fibronectin”, the “CTGF, FN, and Col IV mRNA expression” value ([2]; 0.1 μM simvastatin) was “reduction in CTGF, FN, and Col IV mRNA expression” and the “CTGF, FN, and Col IV mRNA expression” value ([2]; increasing concentration of simvastatin) was “reduction in CTGF, FN, and Col IV mRNA expression became more pronounced”.
